Reference: patent US20230099293A1, “OGA INHIBITOR COMPOUNDS” (priority 2019, published 2023)

Tests used:
[1] = target: T1, recombinant human Meningioma Expressed Antigen 5 (MGEA5), also referred to as O-GlcNAcase (OGA) (Homo sapiens, UniProt O60502); assay: OGA biochemical assay (inhibition of FM-GlcNAc hydrolysis, fluorescence); settings: for IC50: Enzymatic hOGA; for Emax: read-out: Enzymatic Emax (%)
T1 construct: Full length OGA enzyme was purchased at OriGene (cat #TP322411); purchased OriGene TP322411
T1 sequence (O60502 1-916): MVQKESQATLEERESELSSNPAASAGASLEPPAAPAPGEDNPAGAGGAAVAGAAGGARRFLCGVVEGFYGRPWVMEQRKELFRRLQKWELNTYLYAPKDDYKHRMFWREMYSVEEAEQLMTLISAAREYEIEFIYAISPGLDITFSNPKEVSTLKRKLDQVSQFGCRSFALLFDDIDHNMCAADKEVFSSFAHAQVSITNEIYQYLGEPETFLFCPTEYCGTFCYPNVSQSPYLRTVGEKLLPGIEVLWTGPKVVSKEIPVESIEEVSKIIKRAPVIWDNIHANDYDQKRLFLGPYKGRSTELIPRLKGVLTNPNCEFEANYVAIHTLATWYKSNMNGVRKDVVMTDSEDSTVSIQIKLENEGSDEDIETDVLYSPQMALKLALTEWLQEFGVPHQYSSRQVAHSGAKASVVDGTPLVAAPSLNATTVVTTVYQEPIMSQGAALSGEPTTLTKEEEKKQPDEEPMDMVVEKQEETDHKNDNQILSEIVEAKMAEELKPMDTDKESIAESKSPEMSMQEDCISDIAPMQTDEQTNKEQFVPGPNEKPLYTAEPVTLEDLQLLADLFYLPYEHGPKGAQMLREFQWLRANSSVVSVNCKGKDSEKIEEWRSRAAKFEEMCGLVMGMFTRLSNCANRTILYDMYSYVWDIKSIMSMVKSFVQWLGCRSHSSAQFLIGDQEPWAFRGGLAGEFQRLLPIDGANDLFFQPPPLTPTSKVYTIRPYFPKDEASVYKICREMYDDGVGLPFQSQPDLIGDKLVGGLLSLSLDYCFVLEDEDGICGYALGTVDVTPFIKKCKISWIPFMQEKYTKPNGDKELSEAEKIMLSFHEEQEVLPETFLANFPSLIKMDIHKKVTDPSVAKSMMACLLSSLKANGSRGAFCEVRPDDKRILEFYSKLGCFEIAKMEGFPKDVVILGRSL
Description: The hydrolysis FM-GlcNAc (Marker Gene technologies, cat #M1485) results in the formation of β-D-N-glucosamineacetate and fluorescein. The fluorescence of the latter can be measured at excitation wavelength 485 nm and emission wavelength 538 nm. An increase in enzyme activity results in an increase in fluorescence signal. Full length OGA enzyme was purchased at OriGene (cat #TP322411). The enzyme was stored in 25 mM Tris.HCl, pH 7.3, 100 mM glycine, 10% glycerol at −20° C. […] The assay was performed in 200 mM Citrate/phosphate buffer supplemented with 0.005% Tween-20. 35.6 g Na2HIPO42H2O (Sigma, #C0759) were dissolved in 1 L water to obtain a 200 mM solution. […] The buffer to stop the reaction consists of a 500 mM Carbonate buffer, pH 11.0. […] OGA was used at a 2 nM concentration and FM-GlcNAc at a 100 uM final concentration. Dilutions were prepared in assay buffer.
Plates were pre-incubated for 60 min at room temperature and then 2 μl FM-GlcNAc substrate mix added. […] Plates were briefly centrifuged for 1 min at 1000 rpm and incubate at room temperature for 6 h. To stop the reaction 5 μl STOP buffer were added and plates centrifuge again 1 min at 1000 rpm. Fluorescence was quantified in the Thermo Scientific Fluoroskan Ascent or the PerkinElmer EnVision with excitation wavelength 485 nm and emission wavelength 538 nm.
For analysis a best-fit curve is fitted by a minimum sum of squares method. From this an IC50 value and Hill coefficient was obtained. High control (no inhibitor) and low control (saturating concentrations of standard inhibitor) were used to define the minimum and maximum values.

hOGA = target: T2, hOGA (Homo sapiens, UniProt O60502); assay: OGA cellular assay (ICC detection of O-GlcNAcylated proteins in HEK293 cells inducible for P301L mutant human Tau); format: cell-based; parameters: Emax: dose or concentration left out as unconfirmed; settings: for EC50: Cellular hOGA; for Emax: HEK293, read-out: Cellular Emax (%)
T2 construct: endogenous in cells; host or cells: HEK293 cells inducible for P301L mutant human Tau (isoform 2N4R)
T2 sequence (O60502 1-916): T1 sequence (O60502 1-916)
Description: HEK293 cells inducible for P301L mutant human Tau (isoform 2N4R) were established at Janssen. Thiamet-G was used for both plate validation (high control) and as reference compound (reference EC50 assay validation). OGA inhibition is evaluated through the immunocytochemical (ICC) detection of O-GlcNAcylated proteins by the use of a monoclonal antibody (CTD110.6; Cell Signaling, #9875) detecting O-GlcNAcylated residues as previously described (Dorfmueller et al. 2010 Chemistry & biology, 17:1250). Inhibition of OGA will result in an increase of O-GlcNAcylated protein levels resulting in an increased signal in the experiment. Cell nuclei are stained with Hoechst to give a cell culture quality control and a rough estimate of immediate compounds toxicity, if any. ICC pictures are imaged with a Perkin Elmer Opera Phenix plate microscope and quantified with the provided software Perkin Elmer Harmony 4.1.
Cells were propagated in DMEM high Glucose (Sigma, #D5796) following standard procedures. 2 days before the cell assay cells are split, counted and seeded in Poly-D-Lysine (PDL) coated 96-wells (Greiner, #655946) plate at a cell density of 12,000 cells per cm^2 (4,000 cells per well) in 100 μl of Assay Medium (Low Glucose medium is used to reduce basal levels of GlcNAcylation) (Park et al. 2014 The Journal of biological chemistry 289:13519). At the day of compound test medium from assay plates was removed and replenished with 90 μl of fresh Assay Medium. 10 μl of compounds at a 10 fold final concentration were added to the wells. Plates were centrifuged shortly before incubation in the cell incubator for 6 hours. DMSO concentration was set to 0.2%. Medium is discarded by applying vacuum. For staining of cells medium was removed and cells washed once with 100 μl D-PBS (Sigma, #D8537). From next step onwards unless other stated assay volume was always 50 μl and incubation was performed without agitation and at room temperature. Cells were fixed in 50 μl of a 4% paraformaldehyde (PFA, Alpha aesar, #043368) PBS solution for 15 minutes at room temperature. […] Before analysis samples were washed 2 times manually for 5 minutes in ICC base buffer.
Imaging is performed using Perkin Elmer Phenix Opera using a water 20× objective and recording 9 fields per well. Intensity readout at 488 nm is used as a measure of O-GlcNAcylation level of total proteins in wells. To assess potential toxicity of compounds nuclei were counted using the Hoechst staining. IC50-values are calculated using parametric non-linear regression model fitting. As a maximum inhibition Thiamet Gat a 200 uM concentration is present on each plate. In addition, a concentration response of Thiamet G is calculated on each plate.

[2] = pIC50, Table 5, full length OGA 2 nM, FM-GlcNAc 100 uM, 6 h at room temperature
[3] = pEC50, Table 5, HEK293 P301L Tau cells, 6 hours incubation, O-GlcNAcylation readout

| Structure (SMILES) | melting point [°C] | IC50 [1, 2] [nM] | Emax [1] [%] | EC50 (hOGA; [3]) [nM] | Emax (hOGA) [%] | IC50 ([1]; pIC50, second table, averaged values over several runs, obtained after recalibration of the equipment) [nM] | EC50 (hOGA; pEC50, second table, averaged values over several runs, obtained after recalibration of the equipment) [nM] |
| --- | --- | --- | --- | --- | --- | --- | --- |
| Cc1cc(C(F)(F)F)cc(F)c1Nc1nccc2c1ncn2CC(=O)N(C)C1CC1 | 219.8 | – | – | – | – | – | – |
| Cc1cc(C(F)(F)F)cc(F)c1Nc1nccc2c1ncn2CC(=O)N(C)CC(F)(F)F | 238.3 | – | – | – | – | – | – |
| [2H]C([2H])([2H])N(C)C(=O)Cn1cnc2c(Nc3c(C)cc(C(F)(F)F)cc3C)nccc21 | 212.2 | – | – | – | – | – | – |
| Cc1ccnc(C(C)C)c1Nc1nccc2c1ncn2CC(C)(F)F [Compound 1, 1-(2,2-Difluoropropyl)-N-(2-isopropyl-4-methylpyridin-3-yl)-1H-imidazo[4,5-c]pyridin-4-amine] | – | 5.13 | 101 | 45.7 | 81 | – | – |
| Cc1cc(C(F)(F)F)cc(Cl)c1Nc1nccc2c1ncn2CC(C)(F)F [Compound 2] | – | 6.03 | 99 | 95.5 | 87 | – | – |
| Cc1cc(F)cc(F)c1Nc1nccc2c1ncn2CC(C)(F)F [Compound 3] | 174.99 | 25.7 | 101 | 741 | 57 | – | – |
| CNC(=O)Cn1cnc2c(Nc3c(C)cc(C(F)(F)F)cc3C)nccc21 [Compound 4, 2-(4-((2,6-Dimethyl-4-(trifluoromethyl)phenyl)amino)-1H-imidazo[4,5-c]pyridin-1-yl)-N-methylacetamide] | 275.1 | 3.39 | 98 | 55 | 101 | – | – |
| Cc1cc(C(F)(F)F)cc(C)c1Nc1nccc2c1ncn2CC(N)=O [Compound 5, 2-[4-[2,6-Dimethyl-4-(trifluoromethyl)anilino]imidazo[4,5-c]pyridin-1-yl]acetamide] | 266.8 | 120 | 91 | 447 | 67 | – | – |
| Cc1cc(C(F)(F)F)cc(C)c1Nc1ncc(C)c2c1ncn2CC(=O)N(C)C [Compound 6, 2-(4-((2,6-Dimethyl-4-(trifluoromethyl)phenyl)amino)-7-methyl-1H-imidazo[4,5-c]pyridin-1-yl)-N,N-dimethylacetamide] | 238.3 | 19.1 | 99 | 288 | 60 | – | – |
| CN(C)C(=O)Cn1cnc2c(Nc3c(Cl)cc(OC(F)(F)F)cc3Cl)nccc21 [Compound 7] | 201.5 | 6.92 | 102 | 372 | 66 | – | – |
| COc1cc(C)c(Nc2nccc3c2ncn3CC(=O)N(C)C)c(C)c1 [Compound 8] | 230 | 5.5 | 97 | 26.9 | 98 | – | – |
| Cc1cc(OC(F)(F)F)cc(C)c1Nc1nccc2c1ncn2CC(=O)N(C)C [Compound 9] | 186.5 | 6.76 | 99 | 58.9 | 82 | – | – |
| CCc1cc(C(F)(F)F)cc(C)c1Nc1nccc2c1ncn2CC(=O)N(C)C [Compound 10] | 211.6 | 9.33 | 100 | 100 | 100 | – | – |
| Cc1cc(F)cc(F)c1Nc1nccc2c1ncn2CC(=O)N(C)C [Compound 26] | – | 191 | 98 | > 1000 | 8 | – | – |
| Cc1cc(C(F)(F)F)nc(C)c1Nc1nccc2c1ncn2CC(=O)N1CCC1 [Compound 51] | – | 1480 | 82 | > 1000 | 15 | – | – |
| CCCCn1cnc2c(Nc3c(Cl)cncc3Cl)nccc21 [Compound 58] | – | 525 | 95 | – | – | – | – |
| CCCCn1ncc2c(Nc3c(Cl)cncc3Cl)nccc21 [Compound 67] | – | 513 | 94 | > 1000 | 6 | – | – |
| CCCCn1ncc2c(Nc3c(C)cncc3C)nccc21 [Compound 68] | – | 7590 | 61 | – | – | – | – |
| Cc1cc(C(F)(F)F)cc(C)c1Nc1nccc2c1ncn2-c1ncn(C)c1C [Compound 83] | – | – | – | – | – | 1170 | > 1000 |
